According to US7994158B2, “Method for inhibiting tumor growth with dehydrosulphurenic acid extracted from Antrodia cinnamomea” (priority 2008, dated 2011):
pIC50: −log10 of the molar value. Converted amounts (≈) assume the structure as drawn.

Tests used:
[1] = tested on: human leukemic cell line U937; experiment: Mitochondrial transmembrane potential (DiOC6(3), flow cytometry); format: cell-based; conditions: 16 hours
Text: Mitochondrial pathway is one of the pathways of apoptosis induction. In cells undergoing apoptosis, mitochondria were stimulated to regulate the Bcl-2 family of proteins, which made the inner and outer mitochondrial membrane unstable. Apoptigenic factors were further released to induce apoptosis. The apoptotic mechanism of dehydrosulphurenic acid in tumor cells was studied in this experiment by measuring the mitochondrial transmembrane potential.
Dehydrosulphurenic acid in the concentration of 5 μg/ml were used to treat human leukemic cell line U937 for 16 hours; while U937 cells treated with 4 μM anti-cancer drug Camptothecin for 16 hours were served as positive control, and cells without treatment were served as negative control. These cells were washed with PBS and incubated with 40 nM 3,3′-dihexyloxacarbocyanine (DiOC6(3), Molecular Probes, Eugene, Oreg.) in the dark at 37° C. for 15 min, and were detected by flowcytometry. Excitation and emission wavelength settings of 488 nm and 530 nm were used to detect the density of green fluorescence to further estimate mitochondrial membrane potential.

[2] = tested on: apoptosis- and mitotic catastrophe-related proteins in U937 cells; experiment: Western blot analysis of apoptosis-related proteins; format: cell-based, human; conditions: 5 μg/ml; 0.5-16 hours
Text: Death receptor pathway is a signal transduction pathway of apoptosis induction. Some of the death factors, such as TNF-α and so on, bind with death receptor (DR) such as TNF family in the membrane to send death signal to cells and induce a series of apoptotic events. A family of aspartic acid-specific proteases, known as caspases, includes caspase-3 and caspase-8 would be activated during apoptotic process. Activated caspase can cleave downstream protein such as Poly(ADP-ribose) polymerase (PARP) to proceed through apoptosis. This experiment investigated the implication of the death receptor pathway in dehydrosulphurenic acid-induced apoptosis through Western blot analysis.
Dehydrosulphurenic acid in the concentration of 5 μg/ml were used to treat human leukemic cell line U937 for 0.5, 1, 2, 4, and 16 hours; while U937 cells treated with 4 μM anti-cancer drug Camptothecin for 16 hours were served as positive control, and cells without treatment were served as negative control. All the proteins from the cells were extracted with bicinchoninic acid (BCA) assay kit (Pierce, Rockford, Ill.). Equal amounts ([…]) of the protein were aliquoted and separated by electrophoresis on a 10% SDS-PAGE gel at a constant current of 20 mA and 70-100 volts. The proteins on the gel were transferred onto PVDF membranes, blocked with 5% non-fat milk, and incubated respectively with human-specific antibodies including: anti-Bcl-2, anti-Bax, anti-caspase 3, anti-caspase 8, anti-Cyclin B1, anti-p-Chk2 and anti-Actin (all were purchased from Transduction Laboratories, Lexington, Ky., USA) for 3 hours at room temperature. Secondary antibody horseradish peroxidase (purchased from Transduction Laboratories, Lexington, Ky., USA) was then added and the signals were detected under an Enhanced chemiluminescence system (ECS, Amersham Pharmacia, Piscataway, N.J.).

[3] = tested on: human pancreatic cancer cell line BxPc-3; experiment: Nuclear DNA changes, DNA ladder by DNA electrophoresis; format: cell-based; conditions: 5 μg/ml; 24, 48, and 72 hours; data not shown
Method: (§1) Besides the abovementioned morphological changes, biochemical changes of the dying cell during apoptosis include chromatin condensation, cell shrinkage and breaking into apoptotic bodies, internucleosomal DNA fragmentation into a multiple DNA ladder during the late stage of apoptosis (can be shown in DNA electrophoresis) and so on. To further define the effects of dehydrosulphurenic acid on U937 and BxPc-3 during apoptotic stages, DNA ladders were determined using DNA electrophoresis at the present experiment.
(§2) Dehydrosulphurenic acid in the concentration of 5 μg/ml were used to treat human leukemic cell line U937 and human pancreatic cancer cell line BxPc-3 for 24, 48, and 72 hours; while U937 cells treated with 4 μM anti-cancer drug Camptothecin for 24 hours were served as positive control. Then these cells were lyzed with 0.5 ml of lysis buffer (5 mM Tris-borate (TBE), pH8.0; 0.25 ml Nonidet P-40; 1 mM EDTA; 20 μg/ml RNase (Sigma, St. Louis, Mo.)) at 37° C. for 1 hour, followed by treating with 300 μg/ml proteinase K for 1 hour. Total DNAs were extracted and analyzed by 1.5% agarose gel electrophoresis in TBE buffer (5 mM TBE buffer containing 1 μM EDTA, pH 8.0).

[4] = tested on: human leukemic cell line U937; experiment: as above; format: cell-based; conditions: 5 μg/ml; 24, 48, and 72 hours
Method: as §1, §2

[5] = tested on: human pancreatic cancer cell line BxPc-3; experiment: In vitro survival assay (MTT) for anti-pancreatic cancer effects; format: cell-based
Method: The NCI anti-cancer drug screen model was also adopted to test the anti-cancer effect. Dehydrosulphurenic acid was added into the culture media of human pancreatic cancer cell line BxPc-3 to test for tumor cell survival. This survival assay was carried out with the abovementioned MTT assay. American Type Culture Collection (ATCC) purchased BxPc-3 cell line is from pancreatic cancer cells, which was originated from the epithelium of human pancreatic adenocarcinomas.
(§3) The human pancreatic cancer cell line BxPc-3 was cultivated in DMEM media containing 100 IU/ml penicillin (Invitrogen, Carlsbad, Calif.), 100 IU/ml Streptomycin (Invitrogen, Carlsbad, Calif.), 2 mM glutamin (Invitrogen, Carlsbad, Calif.), 100 IU/ml penicillin (Invitrogen, Carlsbad, Calif.) and 10% fetal calf serum (Atlanta Biologicals, Norcross, Ga.). The proliferated cells were treated with dehydrosulphurenic acid in the concentration of 0 (the control group), 5 and 10 μg/ml (the experimental group), respectively. The cells were incubated at 37° C. in a 5% CO2 incubator for 24-72 hours. MTT was added in a concentration of 500 μg/ml into each well in dark and incubated for 4 hours, followed by the addition of 500 μl of isopropanol to stop the reaction. The plates were read on an ELISA reader at wavelength of 570 nm to determine the survival rates. The results were reported as the average±(plus/minus) SEM (Standard Error in the Mean). For statistical analysis, the t-test were used to compare the difference between each experiment result. P<0.05 was considered statistically significant.

[6] = tested on: human monoblastoid leukemic cell line U937; experiment: In vitro survival assay (MTT) for anti-leukemia effects; format: cell-based
Method: The NCI anti-cancer drug screen model was adopted to test the anti-cancer effect of dehydrosulphurenic acid. Dehydrosulphurenic acid was added into the culture media of human monoblastoid leukemic cell line U937 to test for tumor cell survival. This survival assay was carried out with the widely known MTT assay. American Type Culture Collection (ATCC) purchased U937 cell line is from lymphoma cells, which belongs to one of human leukemic cell lines and was classified into monoblasts during hematopoietic differentiation.
MTT assay is commonly used to determine cell proliferation, percent of viable cells, and cytotoxicity. MTT (3-[4,5-dimethylthiazol-2-yl]2,5-diphenyltetrazolium bromide) is a yellow dye, which can be absorbed by the living cells and be reduced to purplish blue formazan crystals by succinate tetrazolium reductase in mitochondria. Formazan formation can therefore be used to assess and determine the survival rate of cells.
as §3, with “human leukemic” for “human pancreatic cancer”, “line U937” for “line BxPc-3”, “in RPMI” for “in DMEM”, “containing” for “containing 100 IU/ml penicillin (Invitrogen, Carlsbad, Calif.), 100 IU/ml Streptomycin (Invitrogen, Carlsbad, Calif.), 2 mM glutamin (Invitrogen, Carlsbad, Calif.), 100 IU/ml penicillin (Invitrogen, Carlsbad, Calif.) and 10%”, “serum for 24 hours and maintained in exponential growth condition.” for “serum (Atlanta Biologicals, Norcross, Ga.).”, “group), 1.25, 2.5, 5,” for “group), 5”

[7] = tested on: human pancreatic cancer cell line BxPc-3; experiment: Cell cycle analysis by flow cytometer (propidium iodide); format: cell-based; conditions: 5 and 10 μg/ml; 2 to 3 days
Method: (§4) Flow cytometer was used to analyze the cell proliferation effect of dehydrosulphurenic acid toward human leukemic cell line U937 and human pancreatic cancer cell line BxPc-3.
(§5) Dehydrosulphurenic acid in the concentration of 1.25, 2.5, 5, and 10 μg/ml were used to treat human leukemic cell line U937 and the concentration of 5 and 10 μg/ml were used to treat human pancreatic cancer cell line BxPc-3; cells without addition of dehydrosulphurenic acid were served as the control group. The treated cells were fixed at […] with 70% ethanol for 1 hour and stained for 30 min with propidium iodide solution (propidium iodide, 0.5 mg/ml; RNAse, 0.1 mg/ml) contained in a CycleTEST PLUS DNA reagent kit (Becton Dickinson, Lincoln Park, N.J.). DNA content measurement on the collected 10^4 cells was performed on the FACS Calibur flow cytometer (Becton Dickinson, Calif., USA), and the cell cycle changes were analyzed using a ModFit software (Becton Dickinson).

[8] = tested on: human leukemic cell line U937; experiment: as above; format: cell-based
Method: as §4, §5

[9] = tested on: human pancreatic cancer cell line BxPc-3; experiment: Cell morphology analysis (Liu's staining); format: cell-based; conditions: 10 μg/ml
Method: (§6) The human leukemic cell line U937 and the human pancreatic cancer cell line BxPc-3 were treated respectively with dehydrosulphurenic acid for 24-72 h and stained with Liu's staining solution. The morphological changes of cells with (the experimental group) or without dehydrosulphurenic acid treatment (the control group) were observed under inverted phase-contrast microscope and shown in FIG. 5 and FIG. 6.

[10] = tested on: human leukemic cell line U937; experiment: Cell morphology analysis (Liu's staining); format: cell-based; conditions: treatment for 24-72 h
Method: as §6

[11] = concentration groups of 5 and 10 μg/ml, third day of experiment

Which “decrease of mitochondrial transmembrane potential” value ([1]; 4 μM camptothecin (positive control)) does the source give for `CC[C@@]1(O)C(=O)OCc2c1cc1n(c2=O)Cc2cc3ccccc3nc2-1` [Camptothecin, reference compound] here?
The value was 37.1%.

Which Bax expression [2] does the source give for `C=C(CC[C@@H](C(=O)O)C1C[C@H](O)[C@@]2(C)C3=CCC4C(C)(C)[C@@H](O)CC[C@]4(C)C3=CC[C@]12C)C(C)C` (stereo partly drawn) [dehydrosulphurenic acid, 24-methylenelanosta-7,9(11)-diene-3β,15α-diol-21-oic acid] here?
The Bax expression was “not changed”.

And the Bcl-2 expression [2]?
The Bcl-2 expression was “slightly increased”.

What about the “cleavage of PARP” value [2] of the same compound?
The value was “no cleavage”.

What about the “cyclin B1 expression” value [2] of the same compound?
The value was “up-regulated”.

What about the “expression of caspase-3” value [2] of the same compound?
Its value is “not altered”.

What about the “expression of caspase-8” value [2] of the same compound?
Its value is “not altered”.

And the “phosphorylation of Chk2” value [2]?
The value was “augmented”.

What about the DNA ladder [3] of the same compound?
The DNA ladder was “no DNA ladder”.

What about the DNA ladder [4] of the same compound?
Its DNA ladder is “obvious DNA ladders”.

And the “decrease of mitochondrial transmembrane potential” value ([1]; 5 μg/ml)?
The value was “no significant decrease”.

What about the “growth inhibition of BxPc-3 cells” value ([5]; 5 and 10 μg/ml, 24-72 hours) of the same compound?
The value was “significantly inhibit the growth of BxPc-3 cells”.

What about the pIC50 ([5]; Homo sapiens, BXPC-3, MTT, data not shown, read-out: IC50 toward BxPc-3 cells) of the same compound?
Its pIC50 is ~5.30.

What about the inhibitory rate [5, 11] of the same compound?
The inhibitory rate was “more than 60%”.

And the highest inhibitory rate ([5]; third day of experiment)?
The highest inhibitory rate was 82.5%.

And the inhibitory rate ([6]; 1.25, 2.5, 5, and 10 μg/ml (all groups), third day of experiment)?
The inhibitory rate was “more than 60%”.

What about the “growth inhibition of U937 cells” value ([6]; 1.25, 2.5, 5, and 10 μg/ml, first day of experiment) of the same compound?
Its value is “inhibit the growth of U937 cells effectively”.

What about the IC50 ([6]; Homo sapiens, U-937, MTT, data not shown, read-out: IC50 toward U937 cells) of the same compound?
Its IC50 is ~2 µg/mL (≈ 4.13 µM).

What about the inhibitory rate [6, 11] of the same compound?
Its inhibitory rate is “more than 95%”.

And the highest inhibitory rate ([6]; third day of experiment)?
Its highest inhibitory rate is 98.9%.

And the cell cycle arrest [7]?
Its cell cycle arrest is “remarkable G0/G1 phase arrest”.

What about the “percentage of polyploidy cells” value [7] of the same compound?
Its value is “not changed”.

And the sub-G1 population [7]?
Its sub-G1 population is “increase of cell cycle arrest at sub-G1 population”.

And the cell cycle arrest ([8]; 1.25-10 μg/ml, first day of experiment)?
The cell cycle arrest was “remarkable G2/M phase arrest”.

What about the sub-G1 population ([8]; higher concentration or second/third day of experiment) of the same compound?
Its sub-G1 population is “accumulating at sub-G1 population”.

What about the “percentage of cells with polyploidy” value ([8]; with increasing concentration) of the same compound?
The value was “accompanied by increasing concentration”.

What about the morphological change ([9]; after 2 days of treatment) of the same compound?
The morphological change was “typical cell apoptosis was observed”.

And the morphological change ([9]; treatment for one day)?
The morphological change was “balloon-shaped cells were presented”.

What about the morphological change [10] of the same compound?
The morphological change was “induced to undergo apoptosis and mitotic catastrophe”.
